Where a name gives a salt, the structure may show the parent alone. Calls of active or inactive are those of the source.
How the values were obtained:
[1] = molecular target: Calpain-2 catalytic subunit (Sus scrofa, UniProt P43367); assay: m-calpain protease blockers, concentration series – biochemical, fluorogenic peptide substrate, dose response (AID 1420); format: functional
[2] = molecular target: T1, Estrogen receptor (Homo sapiens, UniProt P03372);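 note: potency for inhibiting coactivator peptide recruitment to the receptor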
T1 sequence (P03372 whole entry): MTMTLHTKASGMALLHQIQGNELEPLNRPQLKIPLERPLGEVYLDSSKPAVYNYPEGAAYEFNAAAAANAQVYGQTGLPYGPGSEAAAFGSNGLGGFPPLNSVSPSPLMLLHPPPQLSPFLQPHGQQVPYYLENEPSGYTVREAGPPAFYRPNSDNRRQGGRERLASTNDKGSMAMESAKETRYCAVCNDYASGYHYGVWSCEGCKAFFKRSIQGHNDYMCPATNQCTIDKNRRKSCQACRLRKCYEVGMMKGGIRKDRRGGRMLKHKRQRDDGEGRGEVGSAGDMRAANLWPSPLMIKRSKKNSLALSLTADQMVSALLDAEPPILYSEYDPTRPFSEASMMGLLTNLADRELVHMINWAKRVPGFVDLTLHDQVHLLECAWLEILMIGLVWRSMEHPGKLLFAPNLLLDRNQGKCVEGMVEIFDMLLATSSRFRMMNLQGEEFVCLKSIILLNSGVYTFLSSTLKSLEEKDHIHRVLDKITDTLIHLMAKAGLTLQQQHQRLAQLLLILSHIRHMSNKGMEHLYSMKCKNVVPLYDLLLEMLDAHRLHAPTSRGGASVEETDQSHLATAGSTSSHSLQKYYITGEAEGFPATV

[3] = molecular target: T2, Ubiquitin-conjugating enzyme E2 N (Homo sapiens, UniProt P61088); format: functional;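 note: Dose-response confirmation in a TR-FRET assay detecting UBC13-driven polyubiquitin chain formation, inhibition measured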
T2 sequence (P61088 whole entry): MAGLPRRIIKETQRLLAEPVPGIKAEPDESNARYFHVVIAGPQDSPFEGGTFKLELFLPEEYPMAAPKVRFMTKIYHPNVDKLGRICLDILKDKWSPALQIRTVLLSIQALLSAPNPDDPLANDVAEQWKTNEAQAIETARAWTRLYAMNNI

[4] = HPDE-C7 pancreatic duct cell viability loss – fluorescence, HTS (AID 430); format: functional, cell-based; conditions: Homo sapiens
[5] = viability loss of HPDE-C7K cells – cell-based, fluorescence, HTS, primary screen (AID 431); format: functional; conditions: Homo sapiens
[6] = M. tuberculosis growth inhibition, HTS (AID 449762); format: functional
[7] = molecular target: T3, Rac GTPase-activating protein 1 (Homo sapiens, UniProt Q9H0H5); assay: blockers of MgcRacGAP-driven Rac1 GTP hydrolysis – biochemical, ADP Hunter fluorescence, primary and confirmatory, confirmation (AID 624330); format: functional
T3 sequence (Q9H0H5 whole entry): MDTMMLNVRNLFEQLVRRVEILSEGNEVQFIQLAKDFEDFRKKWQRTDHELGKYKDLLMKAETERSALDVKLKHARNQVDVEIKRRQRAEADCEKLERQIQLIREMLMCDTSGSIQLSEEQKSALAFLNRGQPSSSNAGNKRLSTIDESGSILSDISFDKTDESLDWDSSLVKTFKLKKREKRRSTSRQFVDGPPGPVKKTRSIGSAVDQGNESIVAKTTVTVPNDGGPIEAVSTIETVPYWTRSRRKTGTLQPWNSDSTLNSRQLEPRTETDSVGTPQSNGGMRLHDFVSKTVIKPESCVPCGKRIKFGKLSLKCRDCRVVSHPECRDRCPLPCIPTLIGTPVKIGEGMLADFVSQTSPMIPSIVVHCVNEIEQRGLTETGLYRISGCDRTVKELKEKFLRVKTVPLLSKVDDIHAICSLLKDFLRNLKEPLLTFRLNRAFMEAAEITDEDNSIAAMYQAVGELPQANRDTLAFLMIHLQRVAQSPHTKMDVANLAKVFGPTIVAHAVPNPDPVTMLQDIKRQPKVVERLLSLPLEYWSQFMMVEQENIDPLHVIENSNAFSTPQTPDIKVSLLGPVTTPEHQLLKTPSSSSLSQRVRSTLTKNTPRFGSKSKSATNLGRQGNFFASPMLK

[8] = Luminescent dose response cell-based high throughput screening assay for inhibitors of the Janus kinase 2 mutant JAK2V617F. [Related pubchem assays: 1446 (Primary screen.), 1521 (Confirmation assay.), 1486 (Counter screen.)]; format: functional
[9] = Luminescence Cell-Based Dose Confirmation HTS to Identify Activators of 5'UTR Stem-Loop Driven Alpha-Synuclein mRNA Translation in H4 Neuroglioblastoma Cells. [Related pubchem assays: 1829 (Project Summary), 1814 (Primary HTS)]; format: functional
[10] = molecular target: Protein Tat (Human immunodeficiency virus type 1 group M subtype B (isolate HXB2)(HIV-1), UniProt P04608); format: functional;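 note: tat binding to TAR RNA read out by fluorescence polarization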
Sequence of Protein Tat (P04608 whole entry): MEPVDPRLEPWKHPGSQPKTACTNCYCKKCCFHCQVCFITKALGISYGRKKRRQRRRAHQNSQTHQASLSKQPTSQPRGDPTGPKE

[11] = Luminescence Cell-Based Dose Response HTS to Identify Activators of Luciferase Translation or Activity in H4 […] Cells. [Related pubchem assays: 1829 (Project Summary), 1814 (Primary HTS)]; format: functional
[12] = system: H4; assay: Luminescence Cell-Based Dose Response HTS to Identify Activators of 5'UTR Stem-Loop Driven Prion Protein mRNA Translation in H4 Neuroglioblastoma Cells. [Related pubchem assays: 1829 (Project Summary), 1814 (Primary HTS)]; format: functional; conditions: Homo sapiens
[13] = molecular target: Estrogen receptor beta (Homo sapiens, UniProt Q92731); assay: blockers of SRC-3 recruitment to ERβ – biochemical, ELISA, streptavidin-HRP readout, orthogonal assay, confirmation (AID 1060)
Sequence of Estrogen receptor beta (Q92731 whole entry): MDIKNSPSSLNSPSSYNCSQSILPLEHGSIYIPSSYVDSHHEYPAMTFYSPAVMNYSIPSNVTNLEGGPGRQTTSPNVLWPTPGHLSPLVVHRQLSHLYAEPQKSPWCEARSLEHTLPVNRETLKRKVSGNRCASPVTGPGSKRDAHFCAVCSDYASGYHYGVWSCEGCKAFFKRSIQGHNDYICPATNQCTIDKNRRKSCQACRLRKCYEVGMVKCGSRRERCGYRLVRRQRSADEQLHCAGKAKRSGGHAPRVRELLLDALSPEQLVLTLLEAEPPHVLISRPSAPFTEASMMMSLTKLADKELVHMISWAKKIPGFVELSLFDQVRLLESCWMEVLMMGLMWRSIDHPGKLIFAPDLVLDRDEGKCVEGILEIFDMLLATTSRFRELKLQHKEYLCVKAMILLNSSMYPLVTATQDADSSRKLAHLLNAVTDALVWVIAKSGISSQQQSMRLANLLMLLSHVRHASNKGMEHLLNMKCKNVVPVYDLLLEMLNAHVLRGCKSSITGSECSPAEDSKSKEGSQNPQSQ

[14] = cells
[15] = Trypanosoma cruzi growth suppression in host cells – NIH3T3 host cells, beta-gal luminescence, confirmation (AID 2044); format: functional, cell-based;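 note: intracellular parasites grown in NIH/3T3 mouse fibroblasts as host cells; luminescent beta-galactosidase reporter signal from transgenic T. cruzi replicating inside host cells; inhibitors lower the luminescence signal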
[16] = NIH3T3 cell viability loss – ATP luminescence, mouse fibroblasts, counter-screen, dose response (AID 2010); format: functional, cell-based;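 note: cells exposed to compound for about 90 hours before reading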
[17] = viability loss in human Jurkat cells – cell-based, luminescence, cytotoxicity control for P. falciparum gametocyte viability project, dose response (AID 1117277); format: functional;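 note: potency reflects loss of cellular ATP meaning fewer viable cells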
[18] = viability inhibitors of stage V gametocytes – luminescence, dose response (AID 1117278); format: functional, cell-based;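 note: gametocytes exposed to compound for 24 hours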

Sequence of Calpain-2 catalytic subunit (P43367 whole entry): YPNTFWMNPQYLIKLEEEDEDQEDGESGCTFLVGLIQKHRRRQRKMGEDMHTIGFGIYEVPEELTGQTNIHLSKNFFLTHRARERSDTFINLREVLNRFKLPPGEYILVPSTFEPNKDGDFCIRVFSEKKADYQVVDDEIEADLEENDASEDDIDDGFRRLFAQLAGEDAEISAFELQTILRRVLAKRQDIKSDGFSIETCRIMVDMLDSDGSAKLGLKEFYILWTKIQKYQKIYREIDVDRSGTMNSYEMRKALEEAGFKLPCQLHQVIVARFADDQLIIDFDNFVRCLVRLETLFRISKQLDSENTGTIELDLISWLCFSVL

SMILES: Cc1cccc(OCc2nnc(S)n2C2CCCCC2)c1
- IC50 [1]: 15 µM (not active)

SMILES: COc1cccc(/C=C2\N=C(c3c(-c4ccccc4)noc3C)OC2=O)c1OC
- IC50 [2]: > 50 µM (not active)

SMILES: CNCCC(Oc1ccc(C(F)(F)F)cc1)c1ccccc1 (stereo not drawn) [FLUOXETINE HYDROCHLORIDE]
- IC50 [3]: > 20 µM (inactive)
- EC50 [4]: > 20 µM (not active)
- EC50 [5]: > 20 µM (not active)

SMILES: Cn1ccnc1C(O)c1cc(C(C)(C)C)c(O)c(C(C)(C)C)c1 (stereo not drawn)
- IC50 [6]: > 100 µM (active)

SMILES: Oc1ccc(Cl)cc1/N=C/c1sc2ccccc2c1Cl
- IC50 [7]: 20.4 µM (active)
- IC50 [8]: 1.15 µM (active)

SMILES: Cc1ccc2nc3c(cc2c1)CC1(C(=O)N(C)C(=O)N(C)C1=O)C1CCCCN31 (stereo not drawn)
- EC50 [9]: 35.6 µM (active)
- IC50 [10]: > 100 µM (active)
- EC50 [11]: 73.9 µM (active)
- EC50 [12]: 12 µM (active)

SMILES: CC1CCCCN1CC(=O)Nc1sc2c(c1C#N)CCCC2 (stereo not drawn)
- IC50 [13]: 0.0301 µM (not active)

SMILES: CN(C)CCCNc1ccc(-c2nn(C)c(=O)c3ccccc23)cc1[N+](=O)[O-]
- EC50 [14]: 0.135 µM (active)
- EC50 [15]: < 0.1 µM (active)
- EC50 [16]: > 60 µM (not active)

SMILES: CCN(CC)S(=O)(=O)c1ccc(Cl)c(NC(=O)COC(=O)c2cccn2C)c1
- IC50 [17]: > 83.3 µM (inactive)
- IC50 [18]: > 109 µM (inactive)
